Measurements published in ChEMBL document CHEMBL4651402, “Screening of ~5500 FDA-approved drugs and clinical candidates for anti-SARS-CoV-2 activity” (2021).

Tested on: SARS-CoV-2
Assay: microbe, parasite or virus in culture
Conditions: Severe acute respiratory syndrome coronavirus 2, Vero C1008, 48 h

Compound | IC50 | IC50 (read-out: pIC50 (converted))
CCOC(=O)Nc1ccc2c(c1)N(C(=O)CCN(CC)CC)c1ccccc1S2 [ETHACIZINE] | > 20 µM | > 20 µM
C=C(CC)C(=O)c1ccc(OCC(=O)O)c(Cl)c1Cl [ETHACRYNIC ACID] | > 20 µM | > 20 µM
CCN1C(=O)OC(C)(C)C1=O [ETHADIONE] | > 20 µM | > 20 µM
CC[C@@H](CO)NCCN[C@@H](CC)CO [ETHAMBUTOL] | > 20 µM | > 20 µM
CCOc1ccc(Cc2nccc3cc(OCC)c(OCC)cc23)cc1OCC [ETHAVERINE] | > 20 µM | > 20 µM
CCOc1ccccc1C(N)=O [ETHENZAMIDE] | > 20 µM | > 20 µM
C#C[C@]1(O)CC[C@H]2[C@@H]3CCc4cc(O)ccc4[C@H]3CC[C@@]21C [ETHINYL ESTRADIOL] | > 20 µM | > 20 µM
CCc1cc(C(N)=S)ccn1 [ETHIONAMIDE] | > 20 µM | > 20 µM
C#C[C@]1(O)CC[C@H]2[C@@H]3CCC4=CC(=O)CC[C@]4(C)[C@H]3CC[C@@]21C [ETHISTERONE] | > 20 µM | > 20 µM
CCOC(=O)C1(c2ccccc2)CCCN(C)CC1 (stereo not given) [ETHOHEPTAZINE] | > 20 µM | > 20 µM
CCN(CC)C(C)CN1c2ccccc2Sc2ccccc21 (stereo not given) [ETHOPROPAZINE] | > 20 µM | > 20 µM
CCC1(C)CC(=O)NC1=O (stereo not given) [ETHOSUXIMIDE] | > 20 µM | > 20 µM
CCN1C(=O)NC(c2ccccc2)C1=O (stereo not given) [ETHOTOIN] | > 20 µM | > 20 µM
CCOc1ccc(/N=N/c2ccc(N)cc2N)cc1 [ETHOXAZENE] | > 20 µM | > 20 µM
CCN1[C@@H]2CC[C@H]1C[C@@H](OC(c1ccccc1)c1ccccc1)C2 [ETHYBENZTROPINE] | > 20 µM | > 20 µM
CCOc1ccc2nccc([C@@H](O)[C@@H]3C[C@@H]4CCN3C[C@@H]4CC)c2c1 [ETHYLHYDROCUPREINE] | > 20 µM | > 20 µM
CCOc1ccc2c3c1O[C@H]1[C@@H](O)C=C[C@H]4[C@@H](C2)N(C)CC[C@@]341 [ETHYLMORPHINE] | > 20 µM | > 20 µM
CCC(N)C(O)c1ccc(O)c(O)c1 (stereo not given) [ETHYLNOREPINEPHRINE] | > 20 µM | > 20 µM

Compound | IC50 | IC50 (read-out: pIC50 (converted))
CCOC(=O)c1ccc(O)cc1 [ETHYLPARABEN] | > 20 µM | > 20 µM
C#C[C@]1(OC(C)=O)CC[C@H]2[C@@H]3CCC4=C[C@@H](OC(C)=O)CC[C@@H]4[C@H]3CC[C@@]21C [ETHYNODIOL DIACETATE] | > 20 µM | > 20 µM
CCc1cc(Cl)c(OC)c(C(=O)NC[C@@H]2CCCN2CC)c1O [ETICLOPRIDE] | > 20 µM | > 20 µM
CCCN(CC)C(CC)C(=O)Nc1c(C)cccc1C (stereo not given) [ETIDOCAINE] | > 20 µM | > 20 µM
CC(O)(P(=O)(O)O)P(=O)(O)O [ETIDRONIC ACID] | > 20 µM | > 20 µM
CCc1cccc(CC)c1NC(=O)CN(CC(=O)O)CC(=O)O [ETIFENIN] | > 20 µM | > 20 µM
CCNC1=Nc2ccc(Cl)cc2C(C)(c2ccccc2)O1 (stereo not given) [ETIFOXINE] | > 20 µM | > 20 µM
CCNCC(O)c1cccc(O)c1 (stereo not given) [ETILEFRINE] | > 20 µM | > 20 µM
C#CCN/C(=N\C#N)NCCSCc1nc[nH]c1C [ETINTIDINE] | > 20 µM | > 20 µM
CCOc1ccc(NC(=S)Nc2ccc(OCC)cc2)cc1 [ETOCARLIDE] | > 20 µM | > 20 µM
CCc1cccc2c3c([nH]c12)C(CC)(CC(=O)O)OCC3 (stereo not given) [ETODOLAC] | > 20 µM | > 20 µM
O=C(OCCOCCO)c1ccccc1Nc1cccc(C(F)(F)F)c1 [ETOFENAMATE] | > 20 µM | > 20 µM
CCCCN/C(=N\CC)NC(=N)N [ETOFORMIN] | > 20 µM | > 20 µM
Cn1c(=O)c2c(ncn2CCO)n(C)c1=O [ETOFYLLINE] | > 20 µM | > 20 µM
COc1cc([C@@H]2c3cc4c(cc3[C@@H](O[C@@H]3O[C@@H]5CO[C@@H](C)O[C@H]5[C@H](O)[C@H]3O)[C@H]3COC(=O)[C@H]23)OCO4)cc(OC)c1O [ETOPOSIDE] | > 20 µM | > 20 µM
CCc1nc(N)nc(N)c1-c1ccc(Cl)c(Cl)c1 [ETOPRINE] | > 20 µM | > 20 µM
Cc1ccc(-c2ncc(Cl)cc2-c2ccc(S(C)(=O)=O)cc2)cn1 [ETORICOXIB] | > 20 µM | > 20 µM
